Test results taken from US20250248393A1, “METHOD OF RELEASING A SEMIOCHEMICAL IN THE ENVIRONEMENT BY PASSIVE DIFFUSION, SYSTEM AND MEANS, ESPECIALLY STICKS, TO THIS END, AND USES THEREOF” (SIGNS, priority 2024, published 2025).

Columns and labels:
Type in all cases: physicochemical
[1] = F3 direct diffusion, 120 mL and six sticks; conditions: 6 sticks
Description: To that purpose, three devices containing 120 mL of F3 feline facial pheromone product and six rattan sticks were prepared and left on diffusion as shown on FIG. 43.
The direct diffusion of F3 pheromone was then studied following the same protocol as the protocol of the first study shown in Section E/herein.
Each measuring day, the flasks were weighed, and the volume of the liquid was checked visually: see FIGS. 55 and 56.

[2] = F3 sticks device, direct diffusion, 40 mL and four sticks (SPME GC/MS); conditions: four sticks
Description: (§1) Three devices containing 40 mL of F3 feline facial pheromone product and four rattan sticks were prepared and left on diffusion. Every Monday, Wednesday and Friday, the diffusion of the pheromone in air was checked by analysis by gas chromatography coupled with mass spectrometer (GC/MS) and SPME (solid phase microextraction) until there is no liquid left (about 22 days).
To that purpose, the studied device was taken and placed into a closed space (in our case an aquarium turned over) containing the SPME fiber as shown on FIG. 24.
The SPME fiber was left for two hours to give the time for the molecules to adsorb on the fiber, then the fiber was injected into the GC/MS instrument for analysis.
Analysis were carried out using gas chromatography with mass spectrometer. The instrument was a GCMS QP2010SE® from Shimadzu with an AOC6000® Autosampler. The separation was performed on a ZB-5 MS® column (30 m×0.25 mm×0.25 μm, stationary phase: 95% Dimethylpolysiloxane, 5% Phenyl-Arylene) from Phenomenex. The GC oven temperature was initially held at 100° C. for 1 minute then increased at a pace of 10° C./min to 120° C. and left at this temperature for 3 minutes. Finally, the oven temperature was increased at a pace of 10° C./min to 240° C. and left at this temperature for 10 minutes. The carrier gas was helium at 1 mL/min. Analysis were performed in split mode using a split/splitless injector (Temperature: 250° C., split: 1:20). The SPME fiber was directly injected into the injector and left for 30 minutes. Separated molecules were detected using a mass spectrometer which was operated in electron impact ionization (EI) in both full scan (FS) and single ion monitoring (SIM) modes, so called FASST (Fast Automated SCAN/SIM type) mode. The interface temperature was set at 300° C. and electron impact source temperature at 250° C. The analyser was a quadrupole.
For the measurement of the relative quantity of active ingredient spreading in air, the area of the chromatographic peak corresponding to the compound was measured using Shimadzu GCMS-Solution software.

[3] = F3 migration along the stick (top 1 cm, GC/MS); conditions: F3, five sticks
Description: Three devices containing 40 mL of F3 feline facial pheromone product and five […] sticks were prepared and left on diffusion. A t=1 day, T=3 days, T=10 days, T=15 days and T=22 days after preparation of the devices, one stick was taken on each device and 1 cm of the top of each stick was cut, then extracted with acetone 1 h in an ultrasonic bath and analysed by gas chromatography coupled with mass spectrometry (GC/MS). The same analytical parameters were used for the study C with a liquid injection (injected quantity: […]) Blank analysis and matrix blank analysis were also performed.

[4] = F3 block stability study in sodium stearate aqueous gel (GC-MS); conditions: after 3 months
Description: Aqueous sodium stearate gel is a method used by SIGNS for several of the pheromones it markets (pork, poultry, rabbit). The sodium stearate matrix is cast at high temperature (60° C.) and contains 2% pheromone. In this study, matrix samples are taken by coring, and the active ingredients are extracted by apolar solvent, using the SIGNS-validated quality control method. Extracts are analyzed by GC-MS. […] Given this observation, formula F3 cannot be used in blocks for passive diffusion, so a change of galenic formulation is necessary.

[5] = Ratios of molecules diffused through the sticks over time
Description: Furthermore, as small molecules diffuse more, it happens that they lose intensity over the course of the study, so the ratios are different 24 hours after immersing the sticks in the liquid and 21 days later. Here are the ratios for each pheromone studied at the start of the study and at the end.

[6] = F3P PCDS indirect diffusion, pheromone remaining in solution (GC/FID)
Description: For this study, three diffusers each containing 40 mL of product and 6 capillaries were prepared and diffused. Once a week, on Wednesdays, the amount of pheromone remaining in the solution was monitored by gas chromatography analysis coupled to a flame ionization detector (GC/FID) until no liquid remained. The percentage of pheromone was measured weekly.
Next, the percentage of pheromone was checked by external calibration using a GC/FID calibration range.
Analyses were carried out by gas chromatography coupled to a flame ionization detector. The instrument was a Shimadzu GC 2025® with an AOC20i® autosampler. Separation was performed on an Agilent DB-FFAP® column (30 m×0.25 mm×0.25 μm, stationary phase: nitroterephthalic acid-modified polyethylene glycol). The temperature of the gas chromatography oven was initially maintained at 140° C. for 2 minutes, then increased at 10° C./min to 250° C. and left at this temperature for 3 minutes. The carrier gas was helium at 1 mL/min. Analyses were performed in split mode using a split/splitless injector (temperature: 250° C., split: 1:50).
The detector used was a flame ionization detector. The detector temperature was 250° C. with an air flow rate of 400 mL/min, hydrogen 40 mL/min and nitrogen 30 mL/min.
For this purpose, a calibration range was prepared for each analysis. […]

[7] = F3 direct diffusion and mass loss, 40 mL and eight sticks with a refill; conditions: F3, eight sticks
Description: as §1, with “To that purpose, three devices” for “Three devices”, “and eight” for “and four”, “there was” for “there is”, “liquid left. Then, the solution was refilled and a second study of the diffusion of the pheromone was performed.” for “liquid left (about 22 days).”
Experimentally, the studied device was taken and placed into a closed space under identical conditions than in section E/, and for analyzing the same data.
Each measuring day, the devices were weighed and the level of the solution in the flask was controlled.

In the case of `COC(=O)CCCCCC(=O)OC` [dimethyl pimelate, dimethyl heptanedioate], the “direct diffusion over time” value [1] is reported as “decreased over time”, the “direct diffusion over time” value [2] is reported as “gradually decreased over time” and the “quantity on the top of the stick over time” value [3] is reported as “decreased significantly between 5 and 10 days before stabilising”. For the same compound, the “relative quantity on the top of the stick” value [3] was “less present”, the “stability in the block” value [4] was “disappeared completely” and the “ratio of molecules diffused through the sticks” value (“ratio” below) ([5]; F3, 24 h after immersion of sticks) was 70 % (w/w). The “ratio” value ([5]; F3, 21 days after immersion of sticks (empty tank)) was 48 % (w/w), the “ratio” value ([5]; F3P, 24 h after immersion of the sticks) was 56 % (w/w) and the “ratio” value ([5]; F3P, 21 days after immersion of sticks (empty tank)) was 36.5 % (w/w). The “quantities found in the solution” value [6] was “very low” and the “intensity of direct diffusion” value [7] was “highest diffusion”.
